Type in all cases: cell-based
The test system of experiment [1] is Enterococcus faecalis, ampicillin-sensitive and benzylpenicillin-resistant strain. In words: MIC by microdilution and/or E-test. The source says: (§1) The strains and the antibiotics used were: • Gram+ • Enterococcus faecalis.
(§2) The doses of antibiotic applied were 0, the MIC determined in the Microbiology Laboratory by means of the microdilution and/or E-test technique, and those of the cutoff points of sensitivity and resistance indicated by the Clinical and Laboratory Standards Institute (CLSI) for each strain. A dose 10 times higher than the MIC was also used.

Experiment [2] has as its system Enterococcus faecium, ampicillin- and benzylpenicillin-resistant strain. In words: MIC by microdilution and/or E-test.
Text: as §1, §2

Experiment [3] deals with Enterococcus faecalis, ampicillin-sensitive and benzylpenicillin-resistant strain. Briefly: technique for evaluating cell wall integrity (lysis solution, nucleoid release, fluorescence microscopy). As to conditions: 60 minutes. How it is done: (§3) Different bacterial strains grown on a dish with Mueller-Hinton medium for 24 hours were subsequently exposed to a β-lactam antibiotic for 60 minutes in Mueller-Hinton liquid medium at 37° C., under stirring, and were finally processed by means of the technique for evaluating cell wall integrity according to the present invention.
as §2

The subject of experiment [4] is Enterococcus faecium, ampicillin- and benzylpenicillin-resistant strain. The experiment is described as above. Conditions: 320 μg/mL, 60 minutes. How it is done:
as §3, §2

The subject of experiment [5] is Acinetobacter baumannii, imipenem- and ceftazidime-resistant strain. In words: MIC by microdilution and/or E-test.
Text: as §1, §2

The test system of experiment [6] is Acinetobacter baumannii, imipenem-sensitive strain with intermediate sensitivity to ceftazidime. Briefly: MIC by microdilution and/or E-test.
Text: as §1, §2
A general note: Dilution methods test growth across graded concentrations, often in twofold steps.

The test system of experiment [7] is Acinetobacter baumannii, imipenem- and ceftazidime-resistant strain. In words: technique for evaluating cell wall integrity (lysis solution, nucleoid release, fluorescence microscopy). Conditions: 60 minutes. As to the method:
as §3, §2

In experiment [8] the test system is Acinetobacter baumannii, imipenem-sensitive strain with intermediate sensitivity to ceftazidime. The experiment is described as above. Conditions: 60 minutes. How it is done: as §3, §2
Experiment [9] relates to sensitive strain of Escherichia coli. Briefly: technique for evaluating cell wall integrity, Examples 1 and 3. As to conditions: for lysis of the bacteria, showing the nucleoids: exponential liquid culture. The source says: (§4) Three different strains of Escherichia coli were exposed to the β-lactam antibiotic, amoxicilin, together with the β-lactamase inhibitor, clavulanic acid, and processed by means of the technique for evaluating cell wall integrity of the present invention. […] The doses of antibiotic were chosen according to the cutoff points indicated by the Clinical and Laboratory Standards Institute (CLSI). […] According to the disc diffusion data, one of the strains is a sensitive strain, another strain is a strain with intermediate sensitivity and the remaining strain is a resistant strain.
(§5) A sensitive strain, a strain with intermediate sensitivity and another resistant strain of E. coli were exposed to amoxicilin together with clavulanic acid in Mueller-Hinton liquid medium and processed by means of the technique for evaluating cell wall integrity of the present invention. […] The incubation times with the antibiotic were 5, 10, 20, 30, 40, 60 and 75 minutes.

Experiment [10] concerns strain of Escherichia coli with intermediate sensitivity. The description is as above. As to conditions: for incubation time at which a clear effect started to show: only after high dose (32/16).
Text: as §4, §5

For experiment [11], the system named is resistant strain of Escherichia coli. The description is as above.
Text: as §4, §5

Experiment [12] relates to 11 different strains of E. coli isolated in a Microbiology Service. Briefly: technique for evaluating cell wall integrity on hospital isolates. As to conditions: of 11 strains, 1 hour. How it is done:
Following the results of the preceding experiment (Example 1), 11 different strains of E. coli isolated in a Microbiology Service were studied. After growing on a dish with Mueller-Hinton medium for 24 hours, they were exposed to amoxicilin together with clavulanic acid in Mueller-Hinton liquid medium for 1 hour, after which they were processed by means of the technique for evaluating cell wall integrity according to the present invention.

The subject of experiment [13] is amoxicilin/clavulanic acid-sensitive E. coli strain. How it is done: The liquid with the cells is included in an agarose microgel which is dehydrated in alcohols and/or air dried or dried in an oven and stained with fluorochrome. It is the same process described in detail above, but without incubation with lysis solution.
The test system of experiment [14] is sensitive strain of E. coli. In words: background of extracellular DNA fragments, processed without the step of lysis (FIG. 8). Conditions: 40 minutes, after 24 hours on a dish.
Protocol: The strains were processed without the step of lysis by exposure to the lysis solution.
The liquid with the cells is included in an agarose microgel which is dehydrated in alcohols and/or air dried or dried in an oven and stained with fluorochrome. It is the same process described in detail above, but without incubation with lysis solution. The background can be evaluated rapidly after 15-20 minutes that it takes to perform the technique. The preparations are permanent.
The mark [15] stands for this setting: low dose (8/4), bacteria from 24-hour dish culture.
Setting [16] is: dose 32/16, 40 minutes, exponential liquid culture.
Setting [17] is: 32/16, 15 minutes of incubation.

In brackets after ≈: the same amount, converted by molar mass. Like-named read-outs stand apart in the source and are kept apart here.

The MIC is the lowest concentration found to suppress growth. High values mean weaker potency, low ones greater potency. `CC1(C)S[C@@H]2[C@H](NC(=O)Cc3ccccc3)C(=O)N2[C@H]1C(=O)O` [benzylpenicillin] showed a minimum inhibitory concentration (MIC) in experiment [1] greater than 32 µg/mL. This compound gave a minimum inhibitory concentration (MIC) in experiment [2] greater than 32 µg/mL. In experiment [3] (16 μg/mL), the “background of extracellular DNA fragments” value was “some background”, the cells not lysed was found to be 81% and the “lysed cells with a large halo” value was found to be 4.5%. Besides, in experiment [3] (32 μg/mL), the “cells lysed with nucleoid with fragmented DNA” value amounted to 4%, the cells not lysed amounted to 65% and the “cells with a large halo” value worked out at 4%. Moreover, in [3] (320 μg/mL), the “cells with a small halo” value was found to be 25% and the non-lysed cells is 72.3%. In [3] (16, 32 and 320 μg/mL), the empty faint capsules was 0.5-1.5%. Besides, in experiment [4], the “background of extracellular DNA fragments” value is reported as “no background” and the heavily lysed cells is on record as 5%.

`C[C@@H](O)[C@H]1C(=O)N2C(C(=O)O)=C(SCCN=CN)C[C@H]12` [imipenem] displayed a minimum inhibitory concentration (MIC) in experiment [5] greater than 32 µg/mL. This compound returned a minimal inhibitory concentration (MIC) in experiment [6] of 0.38 µg/mL (≈ 1.27 µM). In experiment [7] (16 μg/mL), the “cells with a large halo” value stood at 1%, the “cells with a small halo” value worked out at 1% and the “lysed cells with nucleoid with fragmented DNA” value (“lysed cells with nucleoid” below) worked out at 0.5%. In [7] (320 μg/mL), the cells not lysed was 92%, the heavily lysed cells is recorded as 3.5%, the “lysed cells with a small halo” value came out at 2.5% and the “lysed cells with nucleoid” value worked out at 2%. In experiment [8] (4 μg/mL), the “cells with a large halo” value amounted to 13.5%, the faint empty capsules is on record as 12%, the “lysed cells with nucleoid” value was 66% and the non-lysed cells came to 8.5%. Further, in experiment [8] (8 μg/mL), the “cells with a large halo” value is given as 6%, the faint empty capsules came to 19.5%, the “lysed cells with nucleoid” value worked out at 69.5% and the non-lysed cells was 5%. For the same compound, in experiment [8] (16 μg/mL), the “cells with a large halo” value worked out at 5%, the faint empty capsules worked out at 15%, the “lysed cells with nucleoid” value is given as 73.5% and the non-lysed cells was found to be 6.5%.

amoxicilin/clavulanic acid: the “lysis of the bacteria, showing the nucleoids” value in experiment [9] (dose 8/4 (8 μg/mL amoxicilin, 4 μg/mL clavulanic acid), 40 minutes) is listed as “lysed”; in [9] (dose 32/16, 40 minutes) it was “lysed”; in [10] (setting [16]) it was “lysed”; in experiment [11] (setting [16]), “not lysed”. Also, in experiment [9] (high dose (32/16), bacteria from 24-hour dish culture), the “incubation time after which an effect (background, subtle cell lysis) started to be seen” value was 20 min. Besides, in experiment [9] (low (8/4) and high (32/16) dose, liquid culture in exponential growth phase), the “incubation time after which an effect started to be observed” value was 10 min. In experiment [9] (setting [15]), the “incubation time after which the subtle effect was observed” value amounted to 40 min. Besides, the “incubation time at which the effect became maximum (lysis of virtually all cells)” value in [9] (setting [15]) amounted to 60 min. Besides, the entries for the “incubation time at which a clear effect started to show” value in experiment [10] (bacteria from 24-hour dish culture) and in [10] (liquid culture in exponential growth phase) were 60 min and 30 to 40 min, respectively. The “effect on the wall” value is given as “did not show any effect at all” in experiment [11] (8/4 and 32/16, liquid culture in exponential growth phase); “did not show any effect at all” in [11] (8/4 and 32/16, up to 75 minutes, bacteria from 24-hour dish culture). The “strains with complete wall lysis and intense background even at low dose (8/4), categorized as sensitive” value in experiment [12] is on record as “Three”. Also, in experiment [12], the “strains with complete wall lysis and intense background only at high dose (32/16), intermediate sensitivity” value is listed as 5. Moreover, the “strains with non-lysed and moderately lysed cells, very faint or no background at high dose, categorized as resistant” value in experiment [12] was “Two”. In addition, the “background of extracellular DNA fragments, without lysis” value is given as “very clear background” in experiment [13] (setting [17]); “poor” in experiment [13] (32/16, after 3 and 4 hours); “no longer observed” in [13] (32/16, after 6 hours); “remains intense” in experiment [13] (32/16, up to 2 hours of incubation); “increases significantly” in experiment [14] (high dose (32/16)); “evident” in experiment [14] (low dose (8/4)). Also, the “cells per mL, measured by Neubauer chamber” value in experiment [13] (setting [17]) is listed as 42.5 million of cells per mL. For the same compound, the “OD 600” value in [13] (32/16, 15 minutes of incubation, starting OD 600 0.07) worked out at 0.071; in experiment [13] (32/16, 2 hours of incubation), 0.033; in experiment [13] (32/16, 3 hours) it was 0.037; in [13] (32/16, 4 hours), 0.033; in experiment [13] (32/16, 6 hours), 0.035. For the same compound, the “cells per mL” value in [13] (32/16, 2 hours of incubation) was 14.5 million of cells per mL; in experiment [13] (32/16, 6 hours) it was 13.5 million of cells per mL; in [13] (32/16, at both 3 and 4 hours) it was 14 million of cells per mL.

(Values after patent publication US9976170B2, “Method for evaluating bacterial cell wall integrity” (UNIVERSIDAD AUTONOMA DE MADRID, priority 2011, dated 2018).)
